From patent US20110230421A1, “FUSION PROTEINS OF APOPTIN-PROTEIN TR[…] OF CARBOXYL-TERMINUS OF EC-SOD” (priority 2008, published 2011)
Read-outs that look alike come from different tables or passages of the source.

Key:
Lewis lung carcinoma = type: in vivo, mouse; conditions: i.p. daily for 7-8 days, cyclophosphamide 20, Poly Arg-Apoptin 40, Apoptin-EC-SOD-PTD 10 mg/kgBW/day; for ratio of tumor inhibition: versus blank group mean tumor weight
Experimental: Four groups including a blank control, a positive control and a recombinant Apoptin-EC-SOD-PTD test group and a recombinant Poly Arg-Apoptin group were set for the experiment, and 8 animals were tested for each group. After inoculation of Lewis lung carcinoma cells, the blank control group was injected with saline water. Whereas, the positive control group was injected with cyclophosphamide solution (20 mg/kgBW/day). The two test groups were injected with the recombinant Apoptin-EC-SOD-PTD (10 mg/kgBW/day) which was purified, dialysed and sterile filtrated and recombinant Poly Arg-Apoptin (40 mg/kgBW/day), respectively.
1. Inoculation of carcinoma cell line: Six weeks old C57BU6 male mice with a weight of about 20 g were inoculated by armpit with 0.2 ml of Lewis lung carcinoma single cell suspension. After feeding for 3-4 days, tumor growth in the armpits of the mice was observed. Drug administration test would be initiated when the tumor grew to a size of several millimeters.
2. Administration: Drugs were administered by intraperitoneal injection, and the administrations were continued for 7-8 days. The mouse was weighed before daily administration.
3. Detecting ratio of tumor inhibition: After the drug administrations were stop for 2 days, the mice were sacrificed by breaking their necks. The tumor tissue was stripped from the body, weighted and calculated the ratio of tumor inhibition.
Ratio of tumor inhibition=(mean tumor weight of the blank group—mean tumor weight of the test group)/mean tumor weight of the blank group×100%.

HeLa cells = experiment: MTT survival of HeLa cells cultured in vitro, 24 h; type: cell-based; conditions: 100 μg/ml
Experimental: 1. The HeLa cells were cultured on the 96-well cell culture plate at 37° C. until the cell density reached to about 60%. Imidazole was removed from the recombinant Apoptin-EC-SOD-PTD sample isolated and purified after expressing by repeated dialysis. After sterile filtration, the protein was diluted by adding different volume of DMEM cell culture media. From the highest concentration of protein, the concentration was reduced by half dilution gradually until zero. And the solution without protein was used as the negative control; for each protein concentration group were selected 3-4 wells for parallel control. Meanwhile, the recombinant Apoptin protein isolated and purified from the prokaryotic expression system using the similar method was used as the control and conducted the same experimental operation. The two sets of samples were cultured for 24 h, drew culture media out and added the DMEM (100 μl) containing the 5 μg/ml of MTT, and then incubated for 4 hours at 37° C., drew the culture media out and added DMSO (100 μl) to dissolve the purple crystals, incubated for 10 min at 37° C. and measured its absorbance at 490 nm by a microplate reader. […]
2. Survival ratios of HeLa cells treated with different sample concentration were detected by MTT method.

## O=P1(N(CCCl)CCCl)NCCCO1 (stereo not shown) [cyclophosphamide]
Lewis lung carcinoma; tumor stripped 2 days after last dose
  weight of the tumor tissue X ± SD: 1.21 ± 0.119
Lewis lung carcinoma
  ratio of tumor inhibition: 47.4%
Lewis lung carcinoma; listed as positive control
  ratio of tumor inhibition: 47.4%

B1: recombinant Apoptin: recombinant Apoptin protein isolated and purified from the prokaryotic expression system, used as the control (protein)
chain: MNALQEDTPPGPSTVFRPPTSSRPLETPHCREIRIGIAGITITLSLCGCANARAPTLRSATADNSESTGFKNVPDLRTDQPKPPSKKRSCDPSEYRVSELKESLITTTPSRPRTAKRRIRL
modifications: Chicken anemia virus
notes: recombinant Apoptin protein isolated and purified from the prokaryotic expression system, used as the control
HeLa cells
  effect on the cell growth of HeLa: not obvious
